From US11471462B2, “Compositions and methods for detecting and treating diabetes” (THE BROAD INSTITUTE, INC., priority 2016, dated 2022)

What was measured:
Format in all cases: cell-based, human
SLC16A11 [1] = experiment: Compound treatment, SLC16A11 expression by ddPCR in NCIH716 cells; conditions: same concentrations and treatment times as LINCS
Experimental: (§1) A small number of the compounds that made the strongest positive connections to the SLC16A11 gene expression signature were selected and tested. […] Methotrexate was also included, which had been annotated as a dihydrofolate reductase inhibitor. SNU761 cells (derived from a human hepatocellular carcinoma) and NCIH716 cells (derived from a human cecum adenocarcinoma), which both express SLC16A11, were treated with the compounds. The same compound concentrations and treatment times were used as in the LINCS dataset experiments. […] For normalization, a different housekeeper gene, HPRT1, was used and obtained similar results with the mTOR inhibitors (FIGS. 14A and 14B).
(§2) SNU761 (human hepatocellular carcinoma) and NCIH716 (human cecum adenocarcinoma) were cultured in RPMI Medium 1640 supplemented with 10% Fetal Bovine Serum (FBS), 100 μg/ml Streptomycin and 100 U/ml Penicillin. Cells were grown in a humidified CO2 incubator, at 37° C.
(§3) For the unbiased approach taken to investigate the compounds that connected to the SLC16A11 gene expression signature, compounds were obtained from compound management at the Broad Institute.
(§4) SNU761 and NCIH716 cells were plated into 96 well plates at a density of 20,000 cells per well. Hepatocytes were plated into collagen coated 96 well plates (Corning, 354408) at a density of 50,000 cells per well. After 24 hours, cells were treated with compounds at a final concentration of 10 μM or vehicle control for the appropriate amount of time.
At the time of collection, cells in 96 well plates were lysed by directly adding 50 μL of RLT buffer (Qiagen). […]
(§5) RNA was DNase treated and converted into cDNA using the High-Capacity RNA-to-cDNA kit (Thermo Fisher Scientific). The following FAM-labeled TaqMan Real-Time PCR assays (Thermo Fisher Scientific) were used to quantify gene expression: SLC16A11 (Hs00601062_g1), SLC16A13 (Hs00416832_m1), SLC16A1 (Hs01560299_m1). […] Droplets were generated and analyzed using a QX200 Droplet Generator and Reader system (BioRad). Data was extracted using QuantaSoft (BioRad) and analyzed using Microsoft Excel.

SLC16A11 [2] = experiment: Compound treatment, SLC16A11 expression by ddPCR in SNU761 cells; conditions: SNU761 cells; for SLC16A11 transcript levels, compound treated compared to DMSO treated cells: same concentrations and treatment times as LINCS, ddPCR
Experimental: as §1
From the total list of compounds, 59 readily available compounds were selected from the 79 compounds with the largest connectivity scores to the query signature and 20 middle compounds with connectivity scores centered on 0 (FIG. 15A) and then treated SNU761 cells at the same doses and treatment times as were used in the LINCS dataset. It was expected that the top compounds would be enriched for compounds that increased SLC16A11 expression. […] The results were aligned with the expectations (FIG. 15B). Hierarchical clustering of the SLC16 expression profiles generated by the compound treatments are shown by the heat map in FIG. 15C.
as §2, §3, §4
At the time of collection, cells in 96 well plates were lysed by directly adding 50 μL of RLT buffer (Qiagen). 75 μL of AMPure XP beads, diluted by a factor of 5 in polyethylene glycol, were then added to bind nucleic acids. One wash with polyethylene glycol was then performed. DNase treatment (Qiagen) was carried out according to the manufacturer's protocol in a final volume of 50 μL. 100 μL of polyethylene glycol was added after the DNase treatment to crowd nucleic acids back onto the beads. Two washes with 80% ethanol were performed and residual ethanol was removed. RNA was then eluted in water.
RNA was DNase treated and converted into cDNA using the High-Capacity RNA-to-cDNA kit (Thermo Fisher Scientific). The following FAM-labeled TaqMan Real-Time PCR assays (Thermo Fisher Scientific) were used to quantify gene expression: SLC16A11 (Hs00601062_g1), SLC16A13 (Hs00416832_m1), SLC16A1 (Hs01560299_m1). The VIC-labeled TaqMan Real-Time assays TBP (Hs00427620_m1) or HPRT1 (Hs02800695_m1) were used for normalization. Droplets were generated and analyzed using a QX200 Droplet Generator and Reader system (BioRad). Data was extracted using QuantaSoft (BioRad) and analyzed using Microsoft Excel.

[3] = system: SLC16-dependent pyruvate transport; experiment: Pyronic FRET pyruvate transport assay in 293T cells; conditions: 293T cells pre-incubated with inhibitor; 0.4 mM pyruvate, pH 7.4
Excerpt: To obtain “proof of concept” for monocarboxylate transport by SLC16A11, pyruvate was focused on as the metabolite transported by all four SLC16 category I proteins, whose real-time transport in mammalian cells can be readily studied by the pyruvate FRET sensor, pyronic. 293T cells were co-transfected with pyronic and either empty vector control or SLC16A11-V5, which increases SLC16A11 levels without affecting other category I family members (FIG. 3M). Cells were perfused in physiological pH 7.4 Ringer's solution and 0.4 mM pyruvate was added at the indicated time point (FIG. 3D), resulting in an increase of the fluorescence signal, indicative of pyruvate uptake. […] Thus, this is consistent with the increase in fluorescence resulting from SLC16-dependent pyruvate transport.
Cells were transferred onto glass cover slips in 60 mm tissue culture dishes 72 hr prior to the experiment. […] Cytoplasmic pH changes, indicative of H^+ transport, were determined in cells loaded with 1 μM BCECF-AM (Rink, T. J. et al., 1982, J Cell Biol, 95:189-196), a pH sensitive dye. […] Rates of proton influx and efflux were calculated as the slopes immediately following addition and withdrawal of pyruvate, after correcting for baseline drift. Baseline drift due to fluorescence bleaching is calculated during the initial 50 seconds of each trace prior to addition of pyruvate. […]

SLC16A1 [4] = experiment: Compound treatment, SLC16A1 expression by ddPCR in NCIH716 cells; conditions: 10 μM for 24 hours
Experimental: (§6) FIGS. 14A-14D provide graphs showing that mTOR inhibitors increase SLC16A11, but not SLC16A1 transcript levels. […] SLC16A11 (FIGS. 14A and 14B) and SLC16A1 (FIGS. 14C and 14D) expression was then assessed using droplet digital PCR (ddPCR). Bar plots depict relative fold-changes with respect to DMSO and error bars and standard deviations. Expression is normalized to housekeeping genes TBP or HPRT1.
(§7) A small number of the compounds that made the strongest positive connections to the SLC16A11 gene expression signature were selected and tested. […] Methotrexate was also included, which had been annotated as a dihydrofolate reductase inhibitor. SNU761 cells (derived from a human hepatocellular carcinoma) and NCIH716 cells (derived from a human cecum adenocarcinoma), which both express SLC16A11, were treated with the compounds. […]
as §5

SLC16A11 (A11) = experiment: ddPCR based screening assay for modulators of SLC16A11 expression (Z′); conditions: SNU 761 cells; compound as positive control
Excerpt: As detailed herein above, SLC16A11 (A11) belongs to a family of monocarboxylate transporters. Expression of A11 was studied in SNU 761 cell lines. These liver cancer cells are ideal for studying SLC16A11 expression because A11 is expressed in higher quantity in liver cells, although expression of the gene in all tissues is extremely low. The 5 SNP risk haplotype causes lowered expression and interferes with protein-protein interactions between A11 and a cofactor protein, indicating loss of function. Therefore, increasing A11 expression in individuals with the risk haplotype is likely beneficial.
The quality of an assay can be quantified by Z′, a measure of how well the assay can differentiate between the positive and negative controls. Using the formula: […]
First the cells were treated with inhibitor compounds, their RNA was extracted, and that RNA was used as a template to create DNA. Then, the DNA was quantified using droplet digital PCR (ddPCR), analyzed and quantified using QuantaSoft™ (BioRad). […]
From the QuantaSoft scoring of each droplet, the means and standard deviations of SLC16A11 expression levels was determined in response to compound treatment. […] Points in light gray had the gene of interest and were scored as positive (FIG. 17C). SLC16A11 was scored in the graph. […]

SLC16A1 [5] = experiment: Compound treatment, SLC16A1 expression by ddPCR in SNU761 cells; conditions: 10 μM for 24 hours
Experimental: as §6, §7, §5

| Structure (SMILES) | SLC16A11 transcript levels, compound treated compared to DMSO treated cells (SLC16A11 [1]) | SLC16A11 transcript levels, compound treated compared to DMSO treated cells (SLC16A11 [2]) | pyronic fluorescence signal (pyruvate uptake) [3] | SLC16A1 expression with respect to DMSO (SLC16A1 [4]) | avg_fc (SLC16A11 expression, compound treated vs DMSO treated cells) (SLC16A11 [2]; same doses and treatment times as in the LINCS dataset) | increase in SLC16A11 expression, compound treated compared to DMSO treated cells (SLC16A11 [2]; unbiased test of 59 top and 20 middle LINCS compounds, LINCS doses and times) [fold] | A11 expression in manual ddPCR assay (SLC16A11 (A11)) | SLC16A1 expression with respect to DMSO (SLC16A1 [5]) |
| --- | --- | --- | --- | --- | --- | --- | --- | --- |
| CN(Cc1cnc2nc(N)nc(N)c2n1)c1ccc(C(=O)N[C@@H](CCC(=O)O)C(=O)O)cc1 [methotrexate, reference compound] | did not alter | did not alter |  |  |  |  |  |  |
| Cc1n[nH]c(C)c1Cc1sc2c(c1C(=O)N1C[C@H](O)CO1)c(=O)n(C)c(=O)n2CC(C)C [AR-C155858] |  |  | completely diminished |  |  |  |  |  |
| COc1ccc(-c2ccc3c(N4CCOCC4)nc(N4C[C@@H](C)O[C@@H](C)C4)nc3n2)cc1CO [KU-0063794, [5-[2-(2,6-dimethylmorpholin-4-yl)-4-morpholin-4-ylpyrido[2,3-d]pyrimidin-7-yl]-2-methoxyphenyl]methanol] | about 3 fold | about 3 fold |  | slight decrease | 4.009 | ~4 | increased | slight decrease |
